Test results: ChEMBL document CHEMBL4130462, “Natural isoflavone biochanin A as a template for the design of new and potent 3-phenylquinolone efflux inhibitors against Mycobacterium avium” (Eur J Med Chem, 2017)
Values after ≈ are worked out from the molar mass of the structure shown.

Tests used:
Mycobacterium avium [1] = details: 104
Description: Inhibition of multidrug resistance efflux pump in Mycobacterium avium 104 assessed as potentiation of clarithromycin -induced antibacterial activity by measuring clarithromycin MIC at 1/4 MIC incubated for 3 days by MTT assay

Mycobacterium avium [2] = details: isolate MAV3
Mycobacterium avium [3] = details: isolate MAV2
Description: Inhibition of multidrug resistance efflux pump in Mycobacterium avium isolate MAV2 assessed as potentiation of clarithromycin -induced antibacterial activity by measuring clarithromycin MIC at 1/2 MIC incubated for 3 days by MTT assay (Rvb = >1024 ug/ml)

Mycobacterium avium [4] = details: 104 mc'2 3
Mycobacterium avium [5] = details: isolate MAV3; remark: listed apart in the source
Mycobacterium avium [6] = details: 104 mc'2 3; remark: listed apart in the source
Mycobacterium avium [7] = details: 104 mc'2 3; remark: listed apart in the source
Mycobacterium avium [8] = details: 104 mc'2 4
Mycobacterium avium [9] = details: isolate MAV3; remark: listed apart in the source
[10] = system: Mycobacterium avium subsp. avium ATCC 25291
Mycobacterium avium [11] = details: isolate MAV3; remark: listed apart in the source
Mycobacterium avium [12] = details: 104 mc'2 4; remark: listed apart in the source
Mycobacterium avium [13] = details: isolate MAV1
Description: Inhibition of multidrug resistance efflux pump in Mycobacterium avium isolate MAV1 assessed as potentiation of ofloxacin-induced antibacterial activity by measuring ofloxacin MIC at 1/2 MIC incubated for 3 days by MTT assay (Rvb = 4 ug/ml)

Mycobacterium avium [14] = details: 104; remark: listed apart in the source
Description: Inhibition of multidrug resistance efflux pump in Mycobacterium avium 104 assessed as potentiation of clarithromycin -induced antibacterial activity by measuring clarithromycin MIC at 1/2 MIC incubated for 3 days by MTT assay

Mycobacterium avium [15] = details: 104 mc'2 3; remark: listed apart in the source
Mycobacterium avium [16] = details: isolate MAV4
Mycobacterium avium [17] = details: 104; remark: listed apart in the source
Mycobacterium avium [18] = details: isolate MAV2; remark: listed apart in the source
Mycobacterium avium [19] = details: isolate MAV2; remark: listed apart in the source
Mycobacterium avium [20] = details: 104 mc'2 4; remark: listed apart in the source
Mycobacterium avium [21] = details: isolate MAV3; remark: listed apart in the source
Mycobacterium avium [22] = details: 104 mc'2 4; remark: listed apart in the source
Mycobacterium avium [23] = details: 104 mc'2 3; remark: listed apart in the source
Mycobacterium avium [24] = details: isolate MAV4; remark: listed apart in the source
Description: Inhibition of multidrug resistance efflux pump in Mycobacterium avium isolate MAV4 assessed as potentiation of clarithromycin -induced antibacterial activity by measuring clarithromycin MIC at 1/4 MIC incubated for 3 days by MTT assay

[25] = system: Mycolicibacterium smegmatis; test: Antimycobacterial activity against Mycobacterium smegmatis str. MC2 155 assessed as reduction in bacterial viability incubated for 3 days by MTT assay; type: organism-based; details: 72 h
Mycobacterium avium [26] = details: in vivo, 72 h
Description: Antimycobacterial activity against Mycobacterium avium 104 mc'2 3 assessed as reduction in bacterial viability incubated for 3 days by MTT assay

Mycobacterium avium [27] = details: 104; remark: listed apart in the source
Mycobacterium avium [28] = details: 104; remark: listed apart in the source
Mycobacterium avium [29] = details: isolate MAV1; remark: listed apart in the source
Mycobacterium avium [30] = details: isolate MAV1; remark: listed apart in the source
Mycobacterium avium [31] = details: isolate MAV3; remark: listed apart in the source
Mycobacterium avium [32] = details: isolate MAV4; remark: listed apart in the source
Mycobacterium avium [33] = details: 104 mc'2 4; remark: listed apart in the source
Mycobacterium avium [34] = details: isolate MAV1; remark: listed apart in the source
Mycobacterium avium [35] = details: isolate MAV4; remark: listed apart in the source
[36] = system: Mycobacterium avium subsp. avium ATCC 25291; remark: listed apart in the source
Description: Inhibition of multidrug resistance efflux pump in Mycobacterium avium ATCC 25291 assessed as potentiation of ethidium bromide-induced antibacterial activity by measuring ethidium bromide MIC at 1/2 MIC incubated for 3 days by MTT assay (Rvb = 50 ug/ml)

Mycobacterium avium [37] = details: 104; remark: listed apart in the source
Mycobacterium avium [38] = details: 104 mc'2 3; remark: listed apart in the source
Mycobacterium avium [39] = test: Antimycobacterial activity against Mycobacterium avium isolate MAV4 assessed as reduction in bacterial viability incubated for 3 days by MTT assay; type: organism-based; details: 72 h
Mycobacterium avium [40] = details: isolate MAV1; remark: listed apart in the source
Description: Inhibition of multidrug resistance efflux pump in Mycobacterium avium isolate MAV1 assessed as potentiation of ofloxacin-induced antibacterial activity by measuring ofloxacin MIC at 1/4 MIC incubated for 3 days by MTT assay (Rvb = 4 ug/ml)

Mycobacterium avium [41] = details: 104 mc'2 3; remark: listed apart in the source
Mycobacterium avium [42] = details: isolate MAV4; remark: listed apart in the source
Description: Inhibition of multidrug resistance efflux pump in Mycobacterium avium isolate MAV4 assessed as potentiation of ethidium bromide-induced antibacterial activity by measuring ethidium bromide MIC at 1/4 MIC incubated for 3 days by MTT assay

Mycobacterium avium [43] = details: isolate MAV1; remark: listed apart in the source
Mycobacterium avium [44] = details: isolate MAV4; remark: listed apart in the source
Mycobacterium avium [45] = details: 104 mc'2 4; remark: listed apart in the source
[46] = system: Mycobacterium avium subsp. avium ATCC 25291; remark: listed apart in the source
[47] = Safety index, ratio of MTC for test compound to MTC for chlorpromazine for cytotoxicity in human monocyte-derived macrophages; type: cell-based, Macrophage cell line
Mycobacterium avium [48] = test: Antimycobacterial activity against Mycobacterium avium isolate MAV1 assessed as reduction in bacterial viability incubated for 3 days by MTT assay; type: organism-based; details: in vitro, 72 h
[49] = system: Mycobacterium avium subsp. avium ATCC 25291; remark: listed apart in the source
Description: Inhibition of multidrug resistance efflux pump in Mycobacterium avium ATCC 25291 assessed as potentiation of clarithromycin -induced antibacterial activity by measuring clarithromycin MIC at 1/2 MIC incubated for 3 days by MTT assay

[50] = system: Mycobacterium avium subsp. avium ATCC 25291; remark: listed apart in the source
Mycobacterium avium [51] = test: Antimycobacterial activity against Mycobacterium avium isolate MAV2 assessed as reduction in bacterial viability incubated for 3 days by MTT assay; type: organism-based; details: 72 h
Mycobacterium avium [52] = details: 104; remark: listed apart in the source
[53] = system: Mycobacterium avium subsp. avium ATCC 25291; remark: listed apart in the source
Mycobacterium avium [54] = test: Antimycobacterial activity against Mycobacterium avium ATCC 25291 assessed as reduction in bacterial viability incubated for 3 days by MTT assay; type: organism-based; details: mycobacterium avium subsp. avium atcc 25291, 72 h
[55] = system: Mycobacterium avium subsp. avium ATCC 25291; remark: listed apart in the source
Mycobacterium avium [56] = details: in vivo, 72 h; remark: listed apart in the source
Description: Antimycobacterial activity against Mycobacterium avium 104 mc'2 4 assessed as reduction in bacterial viability incubated for 3 days by MTT assay

Mycobacterium avium [57] = test: Antimycobacterial activity against Mycobacterium avium isolate MAV3 assessed as reduction in bacterial viability incubated for 3 days by MTT assay; type: organism-based; details: 72 h
Mycobacterium avium [58] = details: 104 mc'2 4; remark: listed apart in the source
Mycobacterium avium [59] = details: isolate MAV4; remark: listed apart in the source
Mycobacterium avium [60] = details: isolate MAV2; remark: listed apart in the source
Description: Inhibition of multidrug resistance efflux pump in Mycobacterium avium isolate MAV2 assessed as potentiation of ofloxacin-induced antibacterial activity by measuring ofloxacin MIC at 1/4 MIC incubated for 3 days by MTT assay

[61] = system: Mycobacterium avium subsp. avium ATCC 25291; remark: listed apart in the source
Mycobacterium avium [62] = details: isolate MAV2; remark: listed apart in the source
Mycobacterium avium [63] = details: isolate MAV2; remark: listed apart in the source
Mycobacterium avium [64] = details: isolate MAV1; remark: listed apart in the source
Mycobacterium avium [65] = details: 104 mc'2 4; remark: listed apart in the source
Mycobacterium avium [66] = details: isolate MAV3; remark: listed apart in the source

SMILES: CCCOc1ccc(-c2cn(CCN(CC)CC)c3ccccc3c2=O)cc1
- MIC (Mycobacterium avium [1]): 1 mg/L (≈ 2.64 µM)
- MIC (Mycobacterium avium [2]): 4 mg/L (≈ 10.6 µM)
- MIC (Mycobacterium avium [3]): 64 mg/L (≈ 169 µM)
- MIC (Mycobacterium avium [4]): 512 mg/L (≈ 1350 µM)
- MIC (Mycobacterium avium [5]): 128 mg/L (≈ 338 µM)
- MIC (Mycobacterium avium [6]): 512 mg/L (≈ 1350 µM)
- MIC (Mycobacterium avium [7]): 512 mg/L (≈ 1350 µM)
- MIC (Mycobacterium avium [8]): 4 mg/L (≈ 10.6 µM)
- MIC (Mycobacterium avium [9]): 16 mg/L (≈ 42.3 µM)
- MIC [10]: 16 mg/L (≈ 42.3 µM)
- MIC (Mycobacterium avium [11]): 32 mg/L (≈ 84.5 µM)
- MIC (Mycobacterium avium [12]): 128 mg/L (≈ 338 µM)
- MIC (Mycobacterium avium [13]): 4 mg/L (≈ 10.6 µM)
- MIC (Mycobacterium avium [14]): 0.5 mg/L (≈ 1.32 µM)
- MIC (Mycobacterium avium [15]): 128 mg/L (≈ 338 µM)
- MIC (Mycobacterium avium [16]): 6.25 mg/L (≈ 16.5 µM)
- MIC (Mycobacterium avium [17]): 32 mg/L (≈ 84.5 µM)
- MIC (Mycobacterium avium [18]): 6.25 mg/L (≈ 16.5 µM)
- MIC (Mycobacterium avium [19]): 512 mg/L (≈ 1350 µM)
- MIC (Mycobacterium avium [20]): 8 mg/L (≈ 21.1 µM)
- MIC (Mycobacterium avium [21]): 8 mg/L (≈ 21.1 µM)
- MIC (Mycobacterium avium [22]): 6.25 mg/L (≈ 16.5 µM)
- MIC (Mycobacterium avium [23]): 6.25 mg/L (≈ 16.5 µM)
- MIC (Mycobacterium avium [24]): 8 mg/L (≈ 21.1 µM)
- MIC [25]: 256 mg/L (≈ 676 µM)
- MIC (Mycobacterium avium [26]): 256 mg/L (≈ 676 µM)
- MIC (Mycobacterium avium [27]): 4 mg/L (≈ 10.6 µM)
- MIC (Mycobacterium avium [28]): 16 mg/L (≈ 42.3 µM)
- MIC (Mycobacterium avium [29]): 6.25 mg/L (≈ 16.5 µM)
- MIC (Mycobacterium avium [30]): 16 mg/L (≈ 42.3 µM)
- MIC (Mycobacterium avium [31]): 12.5 mg/L (≈ 33 µM)
- MIC (Mycobacterium avium [32]): 2 mg/L (≈ 5.28 µM)
- MIC (Mycobacterium avium [33]): 256 mg/L (≈ 676 µM)
- MIC (Mycobacterium avium [34]): 3.12 mg/L (≈ 8.26 µM)
- MIC (Mycobacterium avium [35]): 64 mg/L (≈ 169 µM)
- MIC [36]: 25 mg/L (≈ 66 µM)
- MIC (Mycobacterium avium [37]): 1 mg/L (≈ 2.64 µM)
- MIC (Mycobacterium avium [38]): 256 mg/L (≈ 676 µM)
- MIC (Mycobacterium avium [39]): 256 mg/L (≈ 676 µM)
- MIC (Mycobacterium avium [40]): 4 mg/L (≈ 10.6 µM)
- MIC (Mycobacterium avium [41]): 8 mg/L (≈ 21.1 µM)
- MIC (Mycobacterium avium [42]): 12.5 mg/L (≈ 33 µM)
- MIC (Mycobacterium avium [43]): 2 mg/L (≈ 5.28 µM)
- MIC (Mycobacterium avium [44]): 8 mg/L (≈ 21.1 µM)
- MIC (Mycobacterium avium [45]): 512 mg/L (≈ 1350 µM)
- MIC [46]: 64 mg/L (≈ 169 µM)
- selectivity ratio [47]: 2 to 4
- MIC (Mycobacterium avium [48]): 128 mg/L (≈ 338 µM)
- MIC [49]: 8 mg/L (≈ 21.1 µM)
- MIC [50]: 64 mg/L (≈ 169 µM)
- MIC (Mycobacterium avium [51]): 256 mg/L (≈ 676 µM)
- MIC (Mycobacterium avium [52]): 16 mg/L (≈ 42.3 µM)
- MIC [53]: 128 mg/L (≈ 338 µM)
- MIC (Mycobacterium avium [54]): 256 mg/L (≈ 676 µM)
- MIC [55]: 128 mg/L (≈ 338 µM)
- MIC (Mycobacterium avium [56]): 256 mg/L (≈ 676 µM)
- MIC (Mycobacterium avium [57]): 128 mg/L (≈ 338 µM)
- MIC (Mycobacterium avium [58]): > 512 mg/L
- MIC (Mycobacterium avium [59]): 8 mg/L (≈ 21.1 µM)
- MIC (Mycobacterium avium [60]): 2 mg/L (≈ 5.28 µM)
- MIC [61]: 8 mg/L (≈ 21.1 µM)
- MIC (Mycobacterium avium [62]): 0.5 mg/L (≈ 1.32 µM)
- MIC (Mycobacterium avium [63]): 2 mg/L (≈ 5.28 µM)
- MIC (Mycobacterium avium [64]): 0.5 mg/L (≈ 1.32 µM)
- MIC (Mycobacterium avium [65]): 512 mg/L (≈ 1350 µM)
- MIC (Mycobacterium avium [66]): 8 mg/L (≈ 21.1 µM)
